Laboratory results as given in ChEMBL document CHEMBL3045429, “Exploration of antimicrobial potential of pyrazolo[3,4-b]pyridine scaffold bearing benzenesulfonamide and trifluoromethyl moieties” (2013).
In brackets after ≈: the same amount, converted by molar mass. Activity calls are given as the source filed them. The calls are words filed in the database; no cut-off is given here.

Assays:
[1] = system: Candida albicans; experiment: Antifungal activity against Candida albicans MTCC 227 assessed as growth inhibition at 4 mg/mL after 24 hr by agar well diffusion method; format: functional; details: MTCC 227, 24 h, read-out: DIZ
[2] = system: Escherichia coli; experiment: Antibacterial activity against Escherichia coli MTCC 1652 assessed as growth inhibition at 4 mg/mL after 24 hr by agar well diffusion method; format: functional, organism-based
[3] = system: Bacillus subtilis; experiment: Antibacterial activity against Bacillus subtilis MTCC 121 assessed as growth inhibition at 4 mg/mL after 24 hr by agar well diffusion method; format: functional; details: MTCC 121, 24 h, read-out: DIZ
[4] = system: Saccharomyces cerevisiae; experiment: Antifungal activity against Saccharomyces cerevisiae MTCC 170 assessed as growth inhibition at 4 mg/mL after 24 hr by agar well diffusion method; format: functional; details: MTCC 170, 24 h, read-out: DIZ
[5] = system: Candida albicans; experiment: Antifungal activity against Candida albicans MTCC 227 assessed as growth inhibition after 24 hr by agar well diffusion method; format: functional; details: MTCC 227, 24 h
[6] = system: Saccharomyces cerevisiae; experiment: Antifungal activity against Saccharomyces cerevisiae MTCC 170 assessed as growth inhibition after 24 hr by agar well diffusion method; format: functional; details: MTCC 170, 24 h
[7] = system: Staphylococcus aureus; experiment: Antibacterial activity against Staphylococcus aureus MTCC 96 assessed as growth inhibition at 4 mg/mL after 24 hr by agar well diffusion method; format: functional; details: MTCC 96, 24 h, read-out: DIZ
[8] = system: Bacillus subtilis; experiment: Antibacterial activity against Bacillus subtilis MTCC 121 assessed as growth inhibition after 24 hr by agar well diffusion method; format: functional; details: MTCC 121, 24 h
[9] = system: Staphylococcus aureus; experiment: Antibacterial activity against Staphylococcus aureus MTCC 96 assessed as growth inhibition after 24 hr by agar well diffusion method; format: functional; details: MTCC 96, 24 h
[10] = system: Pseudomonas aeruginosa; experiment: microbe, parasite or virus in culture; details: MTCC 741, 24 h, read-out: DIZ
Description: Antibacterial activity against Pseudomonas aeruginosa MTCC 741 assessed as growth inhibition at 4 mg/mL after 24 hr by agar well diffusion method

| Compound | zone of inhibition at 4000 µg/mL [1] [mm] | growth inhibition (GI) [2] | zone of inhibition at 4000 µg/mL [3] [mm] | zone of inhibition at 4000 µg/mL [4] [mm] | MIC [5] [µg/mL] | MIC [6] [µg/mL] | zone of inhibition at 4000 µg/mL [7] [mm] | MIC [8] [µg/mL] | MIC [9] [µg/mL] | zone of inhibition at 4000 µg/mL [10] [mm] |
| --- | --- | --- | --- | --- | --- | --- | --- | --- | --- | --- |
| NS(=O)(=O)c1ccc(-n2nc(-c3ccccc3)c3c(C(F)(F)F)cc(-c4ccc(Br)cc4)nc32)cc1 | 13.6 | inactive | 17.6 | 14.6 | > 256 | 256 (≈ 446 µM) | 18.3 | 64 (≈ 112 µM) | 64 (≈ 112 µM) |  |
| COc1ccc(-c2cc(C(F)(F)F)c3c(-c4ccccc4)nn(-c4ccc(S(N)(=O)=O)cc4)c3n2)cc1 | 15.6 | inactive | 21.6 | 14.6 | 128 (≈ 244 µM) | 256 (≈ 488 µM) | 19.3 | 32 (≈ 61 µM) | 64 (≈ 122 µM) |  |
| O=C(O)c1cn(C2CC2)c2cc(N3CCNCC3)c(F)cc2c1=O [CIPROFLOXACIN] |  |  | 24 |  |  |  | 26.6 | 5 (≈ 15.1 µM) | 5 (≈ 15.1 µM) | 22 |
